Tests used:
Format in all cases: in vivo
[1] = system: foxtail, giant (giant foxtail, Setaria faberii); test: Test C preemergence, plant response rating; conditions: Preemergence
How it was run: (§1)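 Pre-emergence: seeds sown in loam soil–sand blend or silt loam and sprayed with test chemicals in a non-phytotoxic solvent mixture with surfactant. Post-emergence: plants 2 to 18 cm (1- to 4-leaf stage) in peat-based potting medium, same formulation. Greenhouse 13 to 15 d; visual rating 0 (no effect) to 100 (complete control) versus controls.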

[2] = system: corn (Zea mays); test: Test C preemergence, plant response rating; conditions: Preemergence
How it was run: as §1

[3] = system: ryegrass, Italian (Italian ryegrass, Lolium multiflorum); test: Test C preemergence, plant response rating; conditions: Preemergence
How it was run: as §1

[4] = system: lambsquarters (Chenopodium album); test: Test C preemergence, plant response rating; conditions: Preemergence
How it was run: as §1

[5] = system: wheat (winter wheat, Triticum aestivum); test: Test C preemergence, plant response rating; conditions: Preemergence
How it was run: as §1

[6] = system: ragweed (common ragweed, Ambrosia elatior); test: Test C preemergence, plant response rating; conditions: Preemergence
How it was run: as §1

[7] = system: oilseed rape (Brassica napus); test: Test C preemergence, plant response rating; conditions: Preemergence
How it was run: as §1

[8] = system: morningglory (Ipomoea coccinea); test: Test C preemergence, plant response rating; conditions: Preemergence
How it was run: as §1

[9] = system: nutsedge, yellow (yellow nutsedge, Cyperus esculentus); test: Test C preemergence, plant response rating; conditions: Preemergence
How it was run: as §1

[10] = system: soybean (Glycine max); test: Test C preemergence, plant response rating; conditions: Preemergence
How it was run: as §1

[11] = system: crabgrass, large (large crabgrass, Digitaria sanguinalis); test: Test C preemergence, plant response rating; conditions: Preemergence
How it was run: as §1

[12] = system: velvetleaf (Abutilon theophrasti); test: Test C preemergence, plant response rating; conditions: Preemergence
How it was run: as §1

[13] = system: waterhemp (common waterhemp, Amaranthus rudis); test: Test C preemergence, plant response rating; conditions: Preemergence
How it was run: as §1

[14] = system: blackgrass (Alopecurus myosuroides); test: Test C preemergence, plant response rating; conditions: Preemergence
How it was run: as §1

[15] = system: foxtail, giant (giant foxtail, Setaria faberii); test: Test C postemergence, plant response rating; conditions: for Foxtail, Giant plant response rating: scale 0 to 100 (0 no effect, 100 complete control)
How it was run: as §1

[16] = system: wheat (winter wheat, Triticum aestivum); test: Test C postemergence, plant response rating
How it was run: as §1

[17] = system: oilseed rape (Brassica napus); test: Test C postemergence, plant response rating; conditions: for Oilseed Rape plant response rating: scale 0 to 100 (0 no effect, 100 complete control)
How it was run: as §1

[18] = system: morningglory (Ipomoea coccinea); test: Test C postemergence, plant response rating; conditions: for Morningglory plant response rating: scale 0 to 100 (0 no effect, 100 complete control)
How it was run: as §1

[19] = system: velvetleaf (Abutilon theophrasti); test: Test C postemergence, plant response rating
How it was run: as §1

[20] = system: blackgrass (Alopecurus myosuroides); test: Test C postemergence, plant response rating; conditions: for Plant response rating, Blackgrass: scale 0 to 100; for Blackgrass plant response rating: scale 0 to 100 (0 no effect, 100 complete control)
How it was run: as §1

[21] = 125 g ai/ha, scale 0 to 100 (0 no effect, 100 complete control)

FC(F)(F)CCCCc1c(Br)cccc1Oc1ncc(Cl)cn1 [Compound 138]
30: Foxtail, Giant plant response rating ([15]; 62 g ai/ha)
50: Plant response rating, Velvetleaf ([12]; 125 g ai/ha, scale of 0 to 100) | Plant response rating, Blackgrass ([14]; 31 g ai/ha, scale 0 to 100)
35: Plant response rating, Lambsquarters ([4]; 31 g ai/ha, scale 0 to 100) | Wheat plant response rating [16, 21] | Plant response rating, Velvetleaf ([19]; 31 g ai/ha, scale 0 to 100) | Plant response rating, Blackgrass ([20]; 31 g ai/ha)
5: Plant response rating, Corn ([2]; 125 g ai/ha, scale of 0 to 100) | Plant response rating, Corn ([2]; 62 g ai/ha, scale 0 to 100) | Plant response rating, Wheat ([5]; 31 g ai/ha, scale 0 to 100) | Plant response rating, Wheat ([5]; 62 g ai/ha, scale 0 to 100) | Plant response rating, Oilseed Rape ([7]; 62 g ai/ha, scale 0 to 100) | Plant response rating, Soybean ([10]; 125 g ai/ha, scale of 0 to 100) | Plant response rating, Wheat ([16]; 16 g ai/ha, scale of 0 to 100) | Plant response rating, Wheat ([16]; 31 g ai/ha, scale 0 to 100) | Plant response rating, Blackgrass ([20]; 16 g ai/ha)
85: Plant response rating, Foxtail, Giant ([1]; 62 g ai/ha, scale 0 to 100) | Plant response rating, Waterhemp ([13]; 31 g ai/ha, scale 0 to 100) | Plant response rating, Oilseed Rape ([17]; 31 g ai/ha, scale 0 to 100)
100: Plant response rating, Foxtail, Giant ([1]; 125 g ai/ha, scale of 0 to 100) | Plant response rating, Waterhemp ([13]; 62 g ai/ha, scale 0 to 100) | Oilseed Rape plant response rating ([17]; 125 g ai/ha)
80: Plant response rating, Foxtail, Giant ([1]; 31 g ai/ha, scale 0 to 100) | Plant response rating, Ryegrass, Italian ([3]; 125 g ai/ha, scale of 0 to 100) | Plant response rating, Blackgrass ([14]; 62 g ai/ha, scale 0 to 100)
95: Plant response rating, Crabgrass, Large ([11]; 31 g ai/ha, scale 0 to 100) | Oilseed Rape plant response rating ([17]; 62 g ai/ha)
65: Foxtail, Giant plant response rating ([15]; 125 g ai/ha) | Morningglory plant response rating ([18]; 62 g ai/ha) | Morningglory plant response rating ([18]; 125 g ai/ha) | Blackgrass plant response rating ([20]; 125 g ai/ha)
25: Plant response rating, Lambsquarters ([4]; 62 g ai/ha, scale 0 to 100) | Plant response rating, Velvetleaf ([12]; 31 g ai/ha, scale 0 to 100)
20: Plant response rating, Ryegrass, Italian ([3]; 62 g ai/ha, scale 0 to 100) | Plant response rating, Oilseed Rape ([7]; 125 g ai/ha, scale of 0 to 100) | Plant response rating, Velvetleaf ([12]; 62 g ai/ha, scale 0 to 100) | Plant response rating, Foxtail, Giant ([15]; 31 g ai/ha, scale 0 to 100)
0: Plant response rating, Corn ([2]; 16 g ai/ha, scale 0 to 100) | Plant response rating, Corn ([2]; 31 g ai/ha, scale 0 to 100) | Plant response rating, Ragweed ([6]; 31 g ai/ha, scale 0 to 100) | Plant response rating, Ragweed ([6]; 62 g ai/ha, scale 0 to 100) | Plant response rating, Oilseed Rape ([7]; 31 g ai/ha, scale 0 to 100) | Plant response rating, Morningglory ([8]; 31 g ai/ha, scale 0 to 100) | Plant response rating, Morningglory ([8]; 62 g ai/ha, scale 0 to 100) | Plant response rating, Nutsedge, Yellow ([9]; 125 g ai/ha, scale of 0 to 100) | Plant response rating, Nutsedge, Yellow ([9]; 31 g ai/ha, scale 0 to 100) | Plant response rating, Nutsedge, Yellow ([9]; 62 g ai/ha, scale 0 to 100) | Plant response rating, Soybean ([10]; 31 g ai/ha, scale 0 to 100) | Plant response rating, Soybean ([10]; 62 g ai/ha, scale 0 to 100)
90: Plant response rating, Blackgrass ([14]; 125 g ai/ha, scale of 0 to 100)
10: Plant response rating, Ryegrass, Italian ([3]; 31 g ai/ha, scale 0 to 100) | Plant response rating, Wheat ([5]; 125 g ai/ha, scale of 0 to 100) | Plant response rating, Ragweed ([6]; 125 g ai/ha, scale of 0 to 100) | Plant response rating, Morningglory ([8]; 125 g ai/ha, scale of 0 to 100) | Plant response rating, Blackgrass ([14]; 16 g ai/ha, scale 0 to 100) | Plant response rating, Foxtail, Giant ([15]; 16 g ai/ha, scale of 0 to 100) | Plant response rating, Morningglory ([18]; 16 g ai/ha, scale of 0 to 100) | Plant response rating, Velvetleaf ([19]; 16 g ai/ha, scale of 0 to 100) | Blackgrass plant response rating ([20]; 62 g ai/ha)
75: Plant response rating, Crabgrass, Large ([11]; 16 g ai/ha, scale 0 to 100) | Velvetleaf plant response rating [19, 21]
98: Plant response rating, Crabgrass, Large ([11]; 125 g ai/ha, scale of 0 to 100) | Plant response rating, Crabgrass, Large ([11]; 62 g ai/ha, scale 0 to 100) | Plant response rating, Waterhemp ([13]; 125 g ai/ha, scale of 0 to 100)
70: Plant response rating, Lambsquarters ([4]; 125 g ai/ha, scale of 0 to 100) | Plant response rating, Oilseed Rape ([17]; 16 g ai/ha, scale of 0 to 100)
55: Plant response rating, Morningglory ([18]; 31 g ai/ha, scale 0 to 100)

Source: patent US11053204B2, “Pyrimidinyloxy benzene derivatives as herbicides” (FMC Corporation, priority 2015, dated 2021)
